Key:
Details in all cases: 72 h
Caco-2 [1] = experiment: drug sensitivity score (DSS) for viability; higher = more toxic; extreme values may be limits of the assay
Calu-3 [2] = experiment: as above
HepG2 [3] = experiment: as above
U2OS [4] = experiment: as above
Vero E6 [5] = experiment: as above
Caco-2 [6] = experiment: cell viability relative to DMSO; higher = less toxic
Calu-3 [7] = experiment: as above
HepG2 [8] = experiment: as above
U2OS [9] = experiment: as above
Vero E6 [10] = experiment: as above
Caco-2 [11] = experiment: relative viability EC50 (midpoint between 100% and the lowest measured viability); higher = less toxic
Calu-3 [12] = experiment: as above
HepG2 [13] = experiment: as above
U2OS [14] = experiment: as above
Vero E6 [15] = experiment: as above

SMILES	drug sensitivity score (Caco-2 [1])	drug sensitivity score (Calu-3 [2])	drug sensitivity score (HepG2 [3])	drug sensitivity score (U2OS [4])	drug sensitivity score (Vero E6 [5])	cell viability (Caco-2 [6]; 1 nM)	cell viability (Caco-2 [6]; 10 nM)	cell viability (Caco-2 [6]; 100 nM)	cell viability (Caco-2 [6]; 1000 nM)	cell viability (Caco-2 [6]; 10000 nM)	cell viability (Calu-3 [7]; 1 nM)	cell viability (Calu-3 [7]; 10 nM)	cell viability (Calu-3 [7]; 100 nM)	cell viability (Calu-3 [7]; 1000 nM)	cell viability (Calu-3 [7]; 10000 nM)	cell viability (HepG2 [8]; 1 nM)	cell viability (HepG2 [8]; 10 nM)	cell viability (HepG2 [8]; 100 nM)	cell viability (HepG2 [8]; 1000 nM)	cell viability (HepG2 [8]; 10000 nM)	cell viability (U2OS [9]; 1 nM)	cell viability (U2OS [9]; 10 nM)	cell viability (U2OS [9]; 100 nM)	cell viability (U2OS [9]; 1000 nM)	cell viability (U2OS [9]; 10000 nM)	cell viability (Vero E6 [10]; 1 nM)	cell viability (Vero E6 [10]; 10 nM)	cell viability (Vero E6 [10]; 100 nM)	cell viability (Vero E6 [10]; 1000 nM)	cell viability (Vero E6 [10]; 10000 nM)	relative viability EC50 (Caco-2 [11])	relative viability EC50 (Calu-3 [12])	relative viability EC50 (HepG2 [13])	relative viability EC50 (U2OS [14])	relative viability EC50 (Vero E6 [15])
CC(C)NCCCn1c(Sc2cc3c(cc2I)OCO3)nc2c(N)ncnc21 [PU-H71]	6.2	8.5	20.8	12.9	4.9	89.9%	104%	106%	74%	47.1%	97.7%	107%	100%	55.3%	41.1%	101%	95.3%	82.8%	0.3%	0.4%	94.4%	97.5%	95.6%	37.8%	3.8%	102%	105%	105%	92.8%	33.2%	1.02 µM	0.634 µM	0.186 µM	0.686 µM	2.27 µM
CCc1nc2ccc(Cl)cn2c1C(=O)NCc1ccc(N2CCC(c3ccc(OC(F)(F)F)cc3)CC2)cc1 [Q-203]	0.1	0	0.1	0	0	97.3%	95.9%	97.1%	93.5%	85.3%	99.7%	100%	104%	99.6%	104%	106%	108%	92.1%	100%	86.8%	98.6%	101%	97.8%	97.4%	99.8%	107%	100%	99.9%	98.8%	96.5%	> 10 µM	> 10 µM	> 10 µM	> 10 µM	> 10 µM
CN1Cc2c(C(=O)OC(C)(C)C)ncn2-c2ccsc2C1=O [Ro-19-4605]	0	0	0	0	0	98.8%	102%	101%	100%	103%	96.9%	98%	89%	103%	99.3%	105%	96.9%	115%	96.6%	108%	94.5%	92.8%	95.4%	102%	97.2%	101%	96.4%	103%	96.8%	103%	> 10 µM	> 10 µM	> 10 µM	> 10 µM	> 10 µM
Cc1cc(C)cc(NC(=O)Nc2ccc(OS(N)(=O)=O)cc2)c1 [S4]	0	0	0	0	0	105%	97.6%	99.3%	87.4%	101%	104%	104%	92.7%	100%	89.5%	107%	99.3%	104%	108%	97.2%	102%	96.9%	100%	98.1%	99%	102%	103%	103%	103%	96.6%	> 10 µM	> 10 µM	> 10 µM	> 10 µM	> 10 µM
CN1CCC[C@@H]1CCSc1ccc(O)cc1 [SIB-1553A]	0	0	0	0	0	94.4%	100%	99.7%	102%	105%	98.7%	103%	98.6%	91.6%	99.3%	95%	88.9%	95.4%	88.1%	111%	97.9%	101%	97.1%	101%	106%	106%	95.7%	97.5%	96%	104%	> 10 µM	> 10 µM	> 10 µM	> 10 µM	> 10 µM
C=CCNc1ncnc2ccc(Br)cc12 [SMER-28]	0	0.4	0.6	0	0	99.5%	93.4%	98.7%	103%	91.2%	101%	103%	96.1%	100%	82.7%	92.3%	98%	102%	102%	78.8%	101%	97%	102%	96.9%	101%	93.6%	98.3%	95.8%	99.8%	101%	> 10 µM	> 10 µM	> 10 µM	> 10 µM	> 10 µM
Cc1nc(-c2cccnc2)sc1C(=O)Nc1ccccc1-c1cn2c(CN3CCOCC3)csc2n1 [SRT2104]	0	0	0	0	0	90.6%	92.2%	104%	99.2%	102%	93.6%	98.8%	102%	104%	112%	100%	92.8%	98.8%	90.6%	108%	95.5%	104%	94.6%	101%	99.2%	98%	94.9%	92.9%	90.8%	106%	> 10 µM	> 10 µM	> 10 µM	> 10 µM	> 10 µM

Reference: the supplement of paper PMC13380429
